The source made the active and inactive calls.
Key:
Kallikrein-7 = Kallikrein-7 (Homo sapiens, UniProt P49862); assay: Fluorescence Intensity-based biochemical primary high throughput dose response assay to identify activators of kallikrein-7 (K7) zymogen.
[1] = A cytotoxicity screen of small molecule inhibitors of the PhoP region in Salmonella typhi identified in the primary screen. [Related pubchem assays: 1850, 1864, 1985 ]; type: functional
H9c2 = assay: cells; type: functional, cell-based; settings: Rattus norvegicus, H9c2, Myocardium;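 note: confirmatory concentration-response retest of ultra-high-throughput screening hits for modulation of myocardial damage; cell death induced by hydrogen peroxide oxidative stress; compound pretreatment for 60 min then peroxide exposure for 2 h; potency is for protecting the cells against peroxide damage rather than for killing them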
[2] = molecular target: 72 kDa type IV collagenase (Homo sapiens, UniProt P08253); assay: Dose Response validation of uHTS RPN11 inhibitor hits using a MMP-2 Fluorescence assay.; type: functional
Chain of 72 kDa type IV collagenase (P08253 whole entry): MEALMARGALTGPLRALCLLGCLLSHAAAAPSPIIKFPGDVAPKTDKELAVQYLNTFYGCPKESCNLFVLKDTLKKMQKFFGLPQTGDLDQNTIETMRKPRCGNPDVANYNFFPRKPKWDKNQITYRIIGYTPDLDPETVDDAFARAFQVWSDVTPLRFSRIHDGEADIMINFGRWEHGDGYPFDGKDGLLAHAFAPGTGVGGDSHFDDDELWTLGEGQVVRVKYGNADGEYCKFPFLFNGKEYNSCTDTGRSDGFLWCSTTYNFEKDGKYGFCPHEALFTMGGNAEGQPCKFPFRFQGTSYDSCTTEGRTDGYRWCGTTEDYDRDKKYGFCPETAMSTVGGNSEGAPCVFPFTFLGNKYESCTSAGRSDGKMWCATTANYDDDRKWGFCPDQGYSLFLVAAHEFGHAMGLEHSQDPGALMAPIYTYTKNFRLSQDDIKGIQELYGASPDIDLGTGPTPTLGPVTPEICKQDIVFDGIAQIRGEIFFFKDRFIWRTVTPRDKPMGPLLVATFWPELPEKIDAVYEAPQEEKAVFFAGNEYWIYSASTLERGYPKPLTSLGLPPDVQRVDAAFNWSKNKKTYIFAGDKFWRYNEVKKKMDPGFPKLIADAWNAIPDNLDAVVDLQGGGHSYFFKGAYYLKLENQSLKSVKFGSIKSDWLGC

[3] = molecular target: 26S proteasome non-ATPase regulatory subunit 14 (Homo sapiens, UniProt O00487); assay: inhibition of proteasome subunit RPN11 – biochemical, fluorescence polarization, uHTS hits, confirmation (AID 602368); type: functional
[4] = HEp-2 cell cytotoxicity, dose response, cytotoxicity control for RSV inhibitor project, HTS (AID 2410); type: functional; settings: human respiratory syncytial virus
Prothrombin = Prothrombin (Bos taurus, UniProt P00735); assay: thrombin inhibition, dose response, biochemical, fluorescence polarization, uHTS hits (AID 602369); type: functional
[5] = molecular target: Peroxisome proliferator-activated receptor gamma/Nuclear receptor coactivator 3 (Homo sapiens, UniProt P37231); assay: TR-FRET dose response biochemical High Throughput Screening assay for agonists of the steroid receptor coactivator 3 (SRC-3) recruitment by the peroxisome proliferator-activated receptor gamma (PPAR gamma): non-selective agonists. [Related pubchem assays: 1301 (Confirmation screen.), 1048 (Primary screen.)]; type: functional
Chain of Peroxisome proliferator-activated receptor gamma/Nuclear receptor coactivator 3 (P37231 whole entry): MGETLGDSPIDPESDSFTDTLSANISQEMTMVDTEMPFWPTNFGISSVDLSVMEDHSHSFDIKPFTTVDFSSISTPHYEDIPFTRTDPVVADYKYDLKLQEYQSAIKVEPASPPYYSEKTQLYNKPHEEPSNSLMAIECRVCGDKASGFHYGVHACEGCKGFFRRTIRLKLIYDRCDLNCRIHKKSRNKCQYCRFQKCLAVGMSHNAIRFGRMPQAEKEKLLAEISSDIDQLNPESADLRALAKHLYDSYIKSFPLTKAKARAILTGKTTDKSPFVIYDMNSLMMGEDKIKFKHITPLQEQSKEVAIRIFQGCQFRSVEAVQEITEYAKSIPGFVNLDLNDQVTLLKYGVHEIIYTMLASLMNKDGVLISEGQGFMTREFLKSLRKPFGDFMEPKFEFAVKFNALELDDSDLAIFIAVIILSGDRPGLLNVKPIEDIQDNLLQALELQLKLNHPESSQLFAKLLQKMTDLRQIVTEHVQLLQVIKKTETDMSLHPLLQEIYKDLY
Chain of Peroxisome proliferator-activated receptor gamma/Nuclear receptor coactivator 3 (Q9Y6Q9 whole entry, further chain): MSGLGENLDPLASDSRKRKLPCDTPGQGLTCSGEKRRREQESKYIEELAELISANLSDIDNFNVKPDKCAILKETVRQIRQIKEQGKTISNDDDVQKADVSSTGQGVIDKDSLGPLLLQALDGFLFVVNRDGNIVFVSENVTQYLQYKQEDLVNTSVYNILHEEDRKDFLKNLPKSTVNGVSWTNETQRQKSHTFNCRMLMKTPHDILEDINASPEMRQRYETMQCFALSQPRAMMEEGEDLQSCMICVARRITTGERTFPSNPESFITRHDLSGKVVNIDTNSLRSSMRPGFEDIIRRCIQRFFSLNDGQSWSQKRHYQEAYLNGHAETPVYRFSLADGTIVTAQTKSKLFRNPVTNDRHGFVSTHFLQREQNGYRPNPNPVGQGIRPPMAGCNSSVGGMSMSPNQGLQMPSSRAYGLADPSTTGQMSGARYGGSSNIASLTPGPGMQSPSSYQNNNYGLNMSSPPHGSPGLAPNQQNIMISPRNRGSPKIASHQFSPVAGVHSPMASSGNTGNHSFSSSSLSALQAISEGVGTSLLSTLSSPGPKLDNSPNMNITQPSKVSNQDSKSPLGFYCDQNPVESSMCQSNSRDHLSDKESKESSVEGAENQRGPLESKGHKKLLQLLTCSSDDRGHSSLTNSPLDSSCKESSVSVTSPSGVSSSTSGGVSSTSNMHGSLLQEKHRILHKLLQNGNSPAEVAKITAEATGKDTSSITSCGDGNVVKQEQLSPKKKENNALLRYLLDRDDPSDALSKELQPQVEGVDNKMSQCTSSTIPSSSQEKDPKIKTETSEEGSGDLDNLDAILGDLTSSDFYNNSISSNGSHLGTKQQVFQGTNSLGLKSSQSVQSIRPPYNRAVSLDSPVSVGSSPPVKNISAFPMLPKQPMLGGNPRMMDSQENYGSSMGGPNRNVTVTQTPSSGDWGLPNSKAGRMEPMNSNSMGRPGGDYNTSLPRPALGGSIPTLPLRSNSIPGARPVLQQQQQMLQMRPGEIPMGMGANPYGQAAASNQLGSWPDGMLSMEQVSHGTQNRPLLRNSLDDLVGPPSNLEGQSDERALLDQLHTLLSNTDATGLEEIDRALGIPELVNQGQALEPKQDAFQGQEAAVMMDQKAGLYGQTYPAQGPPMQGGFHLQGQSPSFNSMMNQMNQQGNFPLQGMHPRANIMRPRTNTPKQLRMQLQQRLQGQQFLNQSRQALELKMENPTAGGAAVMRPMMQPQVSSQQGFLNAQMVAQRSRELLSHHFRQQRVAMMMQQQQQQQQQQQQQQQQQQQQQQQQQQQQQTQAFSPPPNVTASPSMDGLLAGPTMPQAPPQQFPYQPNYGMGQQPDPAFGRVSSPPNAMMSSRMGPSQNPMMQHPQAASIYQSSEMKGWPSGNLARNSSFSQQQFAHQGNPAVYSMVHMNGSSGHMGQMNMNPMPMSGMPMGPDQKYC

[6] = molecular target: Peroxisome proliferator-activated receptor gamma/Nuclear receptor coactivator 2 (Homo sapiens, UniProt P37231); assay: (§1) TR-FRET dose response biochemical High Throughput Screening assay for agonists of the steroid receptor coactivator 2 (SRC-2) recruitment by the peroxisome proliferator-activated receptor gamma (PPAR gamma): non-selective agonists. [Related pubchem assays: 1297, 1032 ]; type: functional
[7] = molecular target: Peroxisome proliferator-activated receptor gamma/Nuclear receptor coactivator 1 (Homo sapiens, UniProt P37231); assay: as §1, with “1 (SRC-1)” for “2 (SRC-2)”, “assays (depositor defined):AID1300, AID1808, AID504735, AID631]” for “assays: 1297, 1032 ]”; type: protein assay
Chain of Peroxisome proliferator-activated receptor gamma/Nuclear receptor coactivator 1 (P37231 whole entry): as the sequence (P37231 whole entry) above
Chain of Peroxisome proliferator-activated receptor gamma/Nuclear receptor coactivator 1 (Q15788 whole entry, further chain): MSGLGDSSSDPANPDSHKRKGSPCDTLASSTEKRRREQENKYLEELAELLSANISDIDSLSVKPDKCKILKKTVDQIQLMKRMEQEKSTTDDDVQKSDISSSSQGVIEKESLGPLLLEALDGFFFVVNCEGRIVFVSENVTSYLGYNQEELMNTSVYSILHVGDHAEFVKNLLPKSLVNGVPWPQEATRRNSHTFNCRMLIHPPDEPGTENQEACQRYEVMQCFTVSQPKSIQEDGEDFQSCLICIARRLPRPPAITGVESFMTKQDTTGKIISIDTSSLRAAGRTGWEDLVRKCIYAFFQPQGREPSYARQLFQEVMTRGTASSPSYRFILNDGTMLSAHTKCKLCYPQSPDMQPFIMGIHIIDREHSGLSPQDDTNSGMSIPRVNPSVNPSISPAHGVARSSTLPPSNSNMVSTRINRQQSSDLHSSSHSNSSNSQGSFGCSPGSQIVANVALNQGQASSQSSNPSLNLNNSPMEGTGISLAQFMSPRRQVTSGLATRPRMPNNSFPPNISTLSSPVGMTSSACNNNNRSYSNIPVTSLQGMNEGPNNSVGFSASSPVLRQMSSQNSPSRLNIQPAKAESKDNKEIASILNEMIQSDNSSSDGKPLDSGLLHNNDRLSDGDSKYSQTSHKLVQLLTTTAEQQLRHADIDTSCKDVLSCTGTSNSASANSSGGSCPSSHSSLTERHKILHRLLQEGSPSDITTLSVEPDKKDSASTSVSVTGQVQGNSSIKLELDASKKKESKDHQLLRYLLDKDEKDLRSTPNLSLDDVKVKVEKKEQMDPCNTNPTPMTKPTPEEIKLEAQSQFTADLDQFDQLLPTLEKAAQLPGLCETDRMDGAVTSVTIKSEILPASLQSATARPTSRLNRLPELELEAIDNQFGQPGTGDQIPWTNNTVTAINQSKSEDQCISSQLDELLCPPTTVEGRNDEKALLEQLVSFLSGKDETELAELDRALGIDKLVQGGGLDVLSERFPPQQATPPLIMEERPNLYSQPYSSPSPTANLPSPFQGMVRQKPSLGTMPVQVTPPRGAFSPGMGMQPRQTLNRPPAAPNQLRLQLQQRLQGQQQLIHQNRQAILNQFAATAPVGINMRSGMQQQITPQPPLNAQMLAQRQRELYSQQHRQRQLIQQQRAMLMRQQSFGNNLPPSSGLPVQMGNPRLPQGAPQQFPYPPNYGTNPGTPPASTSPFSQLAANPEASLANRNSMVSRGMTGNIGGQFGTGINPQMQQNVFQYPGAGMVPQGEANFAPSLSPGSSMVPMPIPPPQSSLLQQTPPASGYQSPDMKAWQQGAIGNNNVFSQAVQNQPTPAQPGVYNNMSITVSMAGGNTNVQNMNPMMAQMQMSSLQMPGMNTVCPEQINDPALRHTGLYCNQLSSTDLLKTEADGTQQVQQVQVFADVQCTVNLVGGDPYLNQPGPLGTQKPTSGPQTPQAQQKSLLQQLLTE

INS1 = assay: beta cell apoptosis inhibitors, cytokine rescue, dose response, luminescence, retest (AID 449756); type: functional, cell-based; settings: Rattus norvegicus;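 note: cell death triggered by IL-1 beta plus TNF-alpha plus IFN-gamma mixture; protective hits raise ATP signal compared with cytokine alone wells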
[8] = molecular target: T1, Mannose-6-phosphate isomerase (Homo sapiens, UniProt P34949); assay: human PMI inhibitors, high substrate, primary screen, biochemical, fluorescence intensity, high mannose 6-phosphate (AID 1220)
T1 sequence (P34949 whole entry): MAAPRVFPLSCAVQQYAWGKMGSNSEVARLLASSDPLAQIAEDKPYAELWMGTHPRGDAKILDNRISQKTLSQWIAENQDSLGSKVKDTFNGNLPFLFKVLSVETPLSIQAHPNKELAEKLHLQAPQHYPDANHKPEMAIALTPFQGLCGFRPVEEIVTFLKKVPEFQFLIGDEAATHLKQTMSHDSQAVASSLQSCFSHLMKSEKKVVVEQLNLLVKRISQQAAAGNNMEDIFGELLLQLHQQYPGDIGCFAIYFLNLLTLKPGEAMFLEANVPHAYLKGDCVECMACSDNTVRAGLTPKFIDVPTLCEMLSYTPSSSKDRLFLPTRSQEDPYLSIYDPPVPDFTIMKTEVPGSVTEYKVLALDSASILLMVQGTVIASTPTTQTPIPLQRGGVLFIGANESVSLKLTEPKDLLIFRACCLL

[9] = inhibitors of clade B AD8 Env fusion, dose response, cell-based, cherry-pick (AID 652062); type: functional;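 note: luciferase signal from cell-cell fusion driven by HIV-1 clade B AD8 Env; potency is for inhibitors of fusion seen as a drop in luminescence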
[10] = inhibitors of HIV Env-driven cell fusion, dose response, cherry-pick (AID 652057); type: functional, cell-based
[11] = off-target signal loss in HeLa-CEM21 co-culture – HeLa F-luc CTL cells, cherry-picked, counter-screen for HIV-1 Env fusion inhibitor project, dose response (AID 652040); type: functional, cell-based;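 note: potency for signal decrease marking cytotoxic or nonspecific inhibition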
[12] = ZM109 Env clade C HIV-1 fusion inhibitors, dose response, HeLa effector, CEM target cells, luciferase, cherry-pick (AID 652058); type: functional, cell-based

Chain of Kallikrein-7 (P49862 whole entry): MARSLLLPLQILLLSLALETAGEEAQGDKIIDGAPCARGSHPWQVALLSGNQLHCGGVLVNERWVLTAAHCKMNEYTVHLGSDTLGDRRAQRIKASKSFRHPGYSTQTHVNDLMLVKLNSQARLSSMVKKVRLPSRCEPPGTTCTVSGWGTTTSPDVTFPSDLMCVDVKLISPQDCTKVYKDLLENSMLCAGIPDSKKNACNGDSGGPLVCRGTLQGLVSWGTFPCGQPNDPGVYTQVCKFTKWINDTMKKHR

CCCCc1cc(=O)oc2cc(C)cc(OCC(=O)N3CCC(C(=O)O)CC3)c12
EC50 (Kallikrein-7): > 7.72 µM (active)

COc1ccccc1C(=O)N1CC2(C)CC1CC(C)(C)C2 (stereo not given)
EC50 [1]: > 50 µM (active)

O=C(Nc1ccccc1)c1nc[nH]c1C(=O)NCCCCCCNC(=O)c1[nH]cnc1C(=O)Nc1ccccc1
IC50 (H9c2): > 79 µM (inactive)

N#C/C(=C\C1=C(N2CCOCC2)C(=C\c2ccc(Cl)cc2)/CC1)C(=O)Nc1ccccc1F
IC50 [2]: > 100 µM (inactive)
IC50 [3]: 6.46 µM (active)
CC50 [4]: 18.3 µM (active)
IC50 (Prothrombin): 17 µM (active)

COc1ccccc1NC(=O)COc1ccc(C(=O)OCC(=O)NC(C)(C)C)cc1OC
IC50 (H9c2): > 79 µM (inactive)

Cn1c(=O)cc(SCC(=O)NCC2CCCO2)c2ccc(Cl)cc21 (stereo not given)
EC50 [5]: > 79.4 µM (not active)
EC50 [6]: > 26.5 µM (not active)
EC50 [7]: > 79.4 µM (inactive)

CCOC(=O)c1sc(NC(=O)c2ccco2)nc1-c1ccccc1
EC50 [5]: > 79.4 µM (not active)
EC50 [6]: 14.2 µM (not active)
EC50 [7]: 24.3 µM (inactive)

O=C(COC(=O)Cn1[nH]c(=O)c2ccccc2c1=O)NNC(=O)c1ccc(Br)cc1
IC50 (H9c2): 17.2 µM (active)

Oc1ccc(CNc2ccccc2)c2cccnc12
AC50 (INS1): 14.4 µM (active)
IC50 [8]: > 50 µM (not active)

CCN1CCN(c2nc(O)c3c(n2)CCC3)CC1
IC50 (H9c2): > 79 µM (inactive)

COC(=O)C1=C(C)N(CC2CC2)C(=O)N[C@H]1c1ccc(Br)cc1
AC50 [9]: 8.52 µM (active)
AC50 [10]: 7.14 µM (active)
AC50 [11]: 11.7 µM (active)
AC50 [12]: 14.7 µM (active)
CC50 [4]: 35.1 µM (active)
EC50 [1]: > 50 µM (active)

CCCC(=O)Nc1ccc2nn(-c3ccc(OC)cc3)nc2c1
EC50 (Kallikrein-7): > 69.5 µM (inactive)

Reference: ChEMBL document CHEMBL1201862, “PubChem BioAssay data set” (2004)
